# Measured values: the supplement of paper PMC10307832
# Assays:
# Experiment in all cases: relative viability (nuclei count vs DMSO), 5 days (fraction); higher = more cells survive
# HCC-78 = test system: HCC-78
# Outline: (§1)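 Relative viability equals treated-well nuclei counts divided by vehicle-well nuclei counts. Counts came from 4× images of lung cancer cell lines grown in 1536-well plates for 5 days after pin-tool dosing on the day after seeding. Dosing used one drug alone or a fixed anchor-drug dose plus five library-drug doses (not always all listed) in √10 steps, and values are medians of duplicate plates.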
# NCI-H661 = test system: NCI-H661
# Outline: as §1
# NCI-H1915 = test system: NCI-H1915
# Outline: as §1
# HCC-366 = test system: HCC-366
# Outline: as §1
# NCI-H1993 = test system: NCI-H1993
# Outline: as §1
# LK-2 = test system: LK-2
# Outline: as §1
# NCI-H2405 = test system: NCI-H2405
# Outline: as §1
# COR-L23 = test system: COR-L23
# Outline: as §1
# A-427 = test system: A-427
# Outline: as §1
# EMC-BAC-2 = test system: EMC-BAC-2
# Outline: as §1
# NCI-H1563 = test system: NCI-H1563
# Outline: as §1
# COR-L 105 = test system: COR-L 105
# Outline: as §1
# BEN = test system: BEN
# Outline: as §1
# HOP-62 = test system: HOP-62
# Outline: as §1
# NCI-H1734 = test system: NCI-H1734
# Outline: as §1
# SK-MES-1 = test system: SK-MES-1
# Outline: as §1
# PC-14 = test system: PC-14
# Outline: as §1
# NCI-H460 = test system: NCI-H460
# Outline: as §1
# NCI-H647 = test system: NCI-H647
# Outline: as §1
# 201T = test system: 201T
# Outline: as §1
# EKVX = test system: EKVX
# Outline: as §1
# HCC-15 = test system: HCC-15
# Outline: as §1
compound,measurement,setting,value
CN1CCN(CCOc2cc(OC3CCOCC3)c3c(Nc4c(Cl)ccc5c4OCO5)ncnc3c2)CC1 [Saracatinib] + C[C@@H](Oc1cc(-c2cnn(C3CCNCC3)c2)cnc1N)c1c(Cl)ccc(F)c1Cl [Crizotinib] (partner 1 µM),relative viability,HCC-78; first compound 0.02 µM,0.355
same,relative viability,HCC-78; first compound 0.2 µM,0.315
same,relative viability,HCC-78; first compound 0.6325 µM,0.317
same,relative viability,HCC-78; first compound 2 µM,0.207
same,relative viability,NCI-H661; first compound 0.02 µM,1.08
same,relative viability,NCI-H661; first compound 0.6325 µM,1.03
same,relative viability,NCI-H661; first compound 2 µM,0.864
same,relative viability,NCI-H1915; first compound 0.02 µM,0.913
same,relative viability,NCI-H1915; first compound 0.2 µM,0.846
same,relative viability,NCI-H1915; first compound 0.6325 µM,0.916
same,relative viability,NCI-H1915; first compound 2 µM,0.875
same,relative viability,HCC-366; first compound 0.02 µM,0.547
same,relative viability,HCC-366; first compound 0.6325 µM,0.435
same,relative viability,HCC-366; first compound 2 µM,0.182
same,relative viability,NCI-H1993; first compound 0.02 µM,0.832
same,relative viability,NCI-H1993; first compound 0.2 µM,0.594
same,relative viability,NCI-H1993; first compound 2 µM,0.589
same,relative viability,LK-2; first compound 0.02 µM,0.253
same,relative viability,LK-2; first compound 0.2 µM,0.225
same,relative viability,LK-2; first compound 0.6325 µM,0.196
same,relative viability,LK-2; first compound 2 µM,0.201
same,relative viability,NCI-H2405; first compound 0.02 µM,0.854
same,relative viability,NCI-H2405; first compound 0.2 µM,0.788
same,relative viability,NCI-H2405; first compound 0.6325 µM,0.751
same,relative viability,NCI-H2405; first compound 2 µM,0.501
same,relative viability,COR-L23; first compound 0.02 µM,0.65
same,relative viability,COR-L23; first compound 0.2 µM,0.52
same,relative viability,COR-L23; first compound 0.6325 µM,0.658
same,relative viability,COR-L23; first compound 2 µM,0.558
same,relative viability,A-427; first compound 0.02 µM,1.04
same,relative viability,A-427; first compound 0.2 µM,0.604
same,relative viability,A-427; first compound 0.6325 µM,0.837
same,relative viability,A-427; first compound 2 µM,0.926
same,relative viability,EMC-BAC-2; first compound 0.02 µM,0.701
same,relative viability,EMC-BAC-2; first compound 0.2 µM,0.72
same,relative viability,EMC-BAC-2; first compound 0.6325 µM,0.652
same,relative viability,EMC-BAC-2; first compound 2 µM,0.463
same,relative viability,NCI-H1563; first compound 0.02 µM,0.905
same,relative viability,NCI-H1563; first compound 0.2 µM,0.778
same,relative viability,NCI-H1563; first compound 0.6325 µM,0.677
same,relative viability,NCI-H1563; first compound 2 µM,0.635
same,relative viability,COR-L 105; first compound 0.02 µM,0.881
same,relative viability,COR-L 105; first compound 0.2 µM,0.763
same,relative viability,COR-L 105; first compound 0.6325 µM,0.459
same,relative viability,COR-L 105; first compound 2 µM,0.252
same,relative viability,BEN; first compound 0.02 µM,0.77
same,relative viability,BEN; first compound 0.2 µM,0.738
same,relative viability,BEN; first compound 0.6325 µM,0.911
same,relative viability,BEN; first compound 2 µM,0.569
same,relative viability,HOP-62; first compound 0.02 µM,0.772
same,relative viability,HOP-62; first compound 0.2 µM,0.928
same,relative viability,HOP-62; first compound 0.6325 µM,0.841
same,relative viability,HOP-62; first compound 2 µM,1.02
same,relative viability,NCI-H1734; first compound 0.02 µM,0.751
same,relative viability,NCI-H1734; first compound 0.6325 µM,0.656
same,relative viability,NCI-H1734; first compound 2 µM,0.507
same,relative viability,SK-MES-1; first compound 0.02 µM,1.05
same,relative viability,SK-MES-1; first compound 0.2 µM,0.858
same,relative viability,SK-MES-1; first compound 0.6325 µM,0.825
same,relative viability,SK-MES-1; first compound 2 µM,0.517
same,relative viability,PC-14; first compound 0.02 µM,0.993
same,relative viability,PC-14; first compound 0.2 µM,0.555
same,relative viability,PC-14; first compound 0.6325 µM,0.424
same,relative viability,PC-14; first compound 2 µM,0.167
same,relative viability,NCI-H460; first compound 0.02 µM,0.97
same,relative viability,NCI-H460; first compound 0.2 µM,0.501
same,relative viability,NCI-H460; first compound 0.6325 µM,0.696
same,relative viability,NCI-H460; first compound 2 µM,0.566
same,relative viability,NCI-H647; first compound 0.02 µM,1.11
same,relative viability,NCI-H647; first compound 0.2 µM,0.707
same,relative viability,NCI-H647; first compound 0.6325 µM,0.704
same,relative viability,NCI-H647; first compound 2 µM,0.411
same,relative viability,201T; first compound 0.02 µM,1.05
same,relative viability,201T; first compound 0.2 µM,0.946
same,relative viability,201T; first compound 0.6325 µM,0.962
same,relative viability,201T; first compound 2 µM,0.862
same,relative viability,EKVX; first compound 0.02 µM,0.927
same,relative viability,EKVX; first compound 0.2 µM,0.865
same,relative viability,EKVX; first compound 0.6325 µM,0.596
same,relative viability,EKVX; first compound 2 µM,0.302
same,relative viability,HCC-15; first compound 0.02 µM,0.817
same,relative viability,HCC-15; first compound 0.2 µM,0.693
same,relative viability,HCC-15; first compound 0.6325 µM,0.805
same,relative viability,HCC-15; first compound 2 µM,0.765
